For one series, the system named is B. subtilis ATCC6633. Briefly: Antibacterial activity MIC, double-microdilution. The note with it: Bacillus subtilis. It is filed as cell-based, Bacillus subtilis.
Series [1] has as its system nonsense mutation constructs R3X, R245X, G542X, W1282X, Q70X, R3381X (PCDH15, CFTR, IDUA, Dystrophin). Briefly: In vitro stop codon readthrough assay, p2Luc dual luciferase, TNT reticulocyte lysate. The settings on record: cell-free, mutations tested; comparison in words from FIGS. 2, 3, 5-7. Type of series: biochemical. The text has this: DNA fragments derived from PCDH15, CFTR, Dystrophin and IDUA cDNAs, including the tested nonsense mutation or the corresponding wild type (wt) codon, and four to six upstream and downstream flanking codons were created by annealing following pairs of complementary oligonucleotides:
The fragments were inserted in frame into the polylinker of the p2Luc plasmid between either BamHI and SacI (p.R3X and p.R245X), or SalI and SacI (all the rest) restriction sites.
For the in vitro readthrough assays, the obtained plasm ids, with addition of the tested aminoglycosides were transcribed and translated using the TNT Reticulocyte Lysate Quick Coupled Transcription/Translation System. Luciferase activity was determined after 90 minutes of incubation at 30° C., using the Dual Luciferase Reporter Assay System (Promega™).
Initially, the influence of the chiral C5″-methyl group on readthrough potential was evaluated on the pseudo-trisaccharides NB118 and NB119 by using a dual luciferase reporter assay system as described hereinabove. Briefly, DNA fragments were cloned between BamHI and SacI restriction sites of the p2luc vector and the obtained constructs were transcribed and translated using TNT quick coupled transcription/translation system. The amount of the translated products was evaluated using the dual luciferase reporter assay system and used to calculate the suppression level.

Series [2] can be described thus: Cell toxicity LC50 in HEK-293 cells. Type of series: cell-based. The settings on record: human, read-out: Cell toxicity LC50 HEK-293. As to the method: (§1) In order to ensure suitable cell viability for each of the tested compounds at the concentrations tested, cell toxicity was evaluated for each compound by measuring the half-maximal-lethal concentration value (LC50 values) in HEK-293 and HFF (human foreskin fibroblasts) cells.
(§2) The percentages of cell viability were calculated as the ratio between the numbers of living cells in cultures grown in the presence of the tested compounds, versus cultures grown under the identical protocol but without the tested compound. The results represent averages of at least three independent experiments.
(§3) The half-maximal lethal concentration (LC50) values were obtained from fitting concentration-response curves to the data of at least three independent experiments, using GraFit 5 software.

Series [3] concerns the target Prokaryotic system (prokaryotic ribosome). Briefly: Prokaryotic translation inhibition, coupled transcription/translation, luciferase detection. It is filed as biochemical. As to the method:
Prokaryotic and eukaryotic translation inhibition was quantified in coupled transcription/translation assays by using active luciferase detection, performed as described hereinabove. […] All the experiments were performed in duplicates and analogous results were obtained in three different experiments. In all biological tests, all tested aminoglycosides were in their sulfate salt forms. The concentrations reported refer to that of the free amine form of each aminoglycoside.
In all biological experiments conducted, all tested aminoglycosides were in their sulfate salt forms. The concentrations reported in Table 3 refer to that of the free amine form of each aminoglycoside. Prokaryotic and eukaryotic translation inhibition was quantified in coupled transcription/translation assays as previously described. The half-maximal concentration (IC50) values were obtained from fitting concentration response curves to the data of at least three independent experiments, using GraFit 5 software. All the experiments were performed in duplicates and analogous results were obtained in three different experiments.

Series [4] is described as follows: Cell toxicity LC50 in HFF cells. It is filed as cell-based. The settings on record: human, read-out: Cell toxicity LC50 HFF. As to the method: as §1, §2, §3
The test system of series [5] is Eukaryotic system (eukaryotic cytoplasmic ribosome). Briefly: Eukaryotic translation inhibition, coupled transcription/translation, luciferase detection. Type of series: biochemical. The note with it: for Prokaryotic versus Eukaryotic selectivity IC50^Euk/IC50^Pro: ratio of eukaryotic to prokaryotic translation inhibition IC50. The text has this: Prokaryotic and eukaryotic translation inhibition was quantified in coupled transcription/translation assays by using active luciferase detection, performed as described hereinabove. […] In all biological tests, all tested aminoglycosides were in their sulfate salt forms. The concentrations reported refer to that of the free amine form of each aminoglycoside.
In all biological experiments conducted, all tested aminoglycosides were in their sulfate salt forms. The concentrations reported in Table 3 refer to that of the free amine form of each aminoglycoside. Prokaryotic and eukaryotic translation inhibition was quantified in coupled transcription/translation assays as previously described. The half-maximal concentration (IC50) values were obtained from fitting concentration response curves to the data of at least three independent experiments, using GraFit 5 software.

Another series has as its system human fibroblast cells. The note with it: background; cited from earlier work.
The test system of the next series is E. coli R477/100. Briefly: Antibacterial activity MIC, double-microdilution. Type of series: cell-based, Escherichia coli. The note with it: Escherichia coli.
The subject of series [6] is Prokaryotic system (prokaryotic ribosome). The note with it: shown previously; cited from earlier work.
Series [7] deals with nonsense mutation constructs R3X, R245X, Q70X, W1282X, G542X in HEK-293 cells. Briefly: Ex vivo stop codon readthrough assay, p2luc constructs transfected to HEK-293 cells. It is filed as cell-based, human. The settings on record: ex vivo in HEK-293, all the mutations tested, FIGS. 4, 8-10. As to the method:
For the ex vivo readthrough assays, the constructs harboring the R3X, R245X, Q70X and W1282X mutations were transfected to HEK-293 cells with Lipofectamine 2000 (Invitrogen) and addition of the tested compounds was performed 6 hours post transfection. The cells were harvested following 16 hours of incubation with the tested aminoglycosides. Stop codon readthrough was calculated as previously described (see, Grentzmann, G. et al., RNA, 1998, 4, p. 479).
The constructs were transfected into a human embryonic kidney cell line (HEK-293) and incubated with varying concentrations of NB122, NB123, NB54 and the control drug gentamicin, and the results are presented in FIGS. 4A-D.
As described hereinabove, the constructs of p2luc plasmid harboring the R3X, R245X, Q70X and W1282X mutations were transfected to HEK-293 cells using lipofectamine2000 and the tested compounds were added 6 hours post transfection. Cells were harvested after 16 hours incubation and luciferase activity was determined using the dual luciferase reporter assay system (Promega™). Stop codon readthrough was calculated as described previously, and the results are averages of at least three independent experiments.

The mark [8] stands for this setting: Table 2, read-out: Translation Inhibition Prokaryotic system IC50.
Setting [9] is: Table 3, read-out: Translation Inhibition IC50^Pro.
Where [10] appears, read: Table 2, read-out: Translation Inhibition Eukaryotic System IC50.
The mark [11] stands for this setting: Table 3, read-out: Translation Inhibition IC50^Euk.

One may read the IC50 as the concentration that gives 50% inhibition.

≈ marks a conversion by molar mass, not a printed value. Where two headings read alike, the source gives them in different places.

Regarding `CN[C@H]1[C@@H](O)C(OC2[C@H](N)CC(N)[C@@H](O[C@H]3OC(C(C)O)[C@@H](O)[C@H](O)C3N)[C@@H]2O)OCC1(C)O` (stereo partly drawn) [G418, reference compound], the MIC in the series on B. subtilis ATCC6633 (ATCC6633, read-out: Antibacterial activity MIC B. subtilis ATCC6633) is less than 1.25 µM; in the series with E. coli R477/100 (R477/100, read-out: Antibacterial activity MIC E. coli R477/100), 9 µM (≈ 4.47 µg/mL). Further, the “in vitro readthrough activity (stop codon suppression level)” value in series [1] is reported as “the strongest readthrough inducer”. Also, the CC50 in series [2] (Table 2) was 1310 ± 60 µM; in series [4] (Table 2) it was 1590 ± 140 µM. The IC50 is 0.009 ± 0.002 µM in series [3] (setting [8]), 0.009 ± 0.002 µM in series [3] (setting [9]), 2 ± 0.3 µM in series [5] (setting [10]) and 2 µM in series [5] (setting [11]). Moreover, in series [5], the “more selective to prokaryotic versus eukaryotic ribosome” value came out at 225 fold. In addition, the “LD50 against human fibroblast cells” value in the series with human fibroblast cells is 0.04 mg/mL.

As for `C[C@@H](O)C1O[C@H](O[C@@H]2C(N)C[C@@H](NC(=O)[C@@H](O)CCN)[C@@H](O)C2O[C@@H]2O[C@H](CN)[C@H](O)C2O)[C@@H](N)C(O)[C@@H]1O` (stereo partly drawn) [NB84, reference compound], the MIC in the series with B. subtilis ATCC6633 (ATCC6633, Table 2, read-out: Antibacterial activity MIC B. subtilis ATCC6633) was determined as 70 µM (≈ 39.9 µg/mL); in the series on E. coli R477/100 (R477/100, Table 2, read-out: Antibacterial activity MIC E. coli R477/100), 556 µM (≈ 317 µg/mL). The “weaker inhibitors of prokaryotic translation than gentamicin and paromomycin” value in [6] is recorded as “about 10 fold”. In addition, the “observed efficacy of aminoglycoside-induced readthrough, order” value in series [7] is given as “NB127 NB128>NB84>gentamicin”. Besides, the CC50 in series [2] (HEK-293 cells, Table 2) amounted to 5770 ± 680 µM; in series [4] (HFF (human foreskin fibroblast) cells, Table 2), 16300 ± 470 µM. The IC50 in [3] (setting [8]) is 0.98 ± 0.07 µM; in [3] (setting [9]) it was 0.98 ± 0.07 µM; in series [5] (setting [10]), 2.8 ± 0.3 µM; in series [5] (setting [11]), 2.8 ± 0.3 µM. For the same molecule, in [5], the “Prokaryotic versus Eukaryotic selectivity IC50^Euk/IC50^Pro” value came out at 2.9.

Regarding `NCC[C@H](O)C(=O)N[C@@H]1CC(N)[C@@H](O[C@H]2OC(CO)[C@@H](O)[C@H](O)C2N)[C@H](O[C@@H]2O[C@H](CN)[C@H](O)C2O)C1O` (stereo partly drawn) [NB54, reference compound], the MIC with B. subtilis ATCC6633 (ATCC6633, Table 1, free amine concentration, sulfate salts tested, read-out: Antibacterial activity MIC B. subtilis ATCC6633) is 70 µM; in the series on E. coli R477/100 (R477/100, Table 1, read-out: Antibacterial activity MIC E. coli R477/100), 588 µM (≈ 327 µg/mL). Further, the “weaker inhibitors of prokaryotic translation than gentamicin and paromomycin” value in series [6] is “about 10 fold”. The “observed efficacy of aminoglycoside-induced readthrough, order” value in series [7] is “NB122≥NB123>NB54>gentamicin”. In addition, the CC50 in series [2] (HEK-293 cells, Table 1) stood at 6100 µM; in series [4] (HFF (human foreskin fibroblast) cells, Table 1), 7800 ± 400 µM. In addition, the IC50 was 0.16 ± 0.02 µM in series [3] (Table 1, read-out: Translation inhibition Prokaryotic system IC50); 0.16 ± 0.02 µM in [3] (setting [9]); 24 µM in [5] (Table 1, read-out: Translation inhibition Eukaryotic System IC50); 24 ± 1 µM in series [5] (setting [11]). In addition, in series [5], the “Prokaryotic versus Eukaryotic selectivity IC50^Euk/IC50^Pro” value came out at 151.

Values taken from patent publication US11865128B2, “Aminoglycosides and uses thereof in treating genetic disorders” (Technion Research & Development Foundation Limited, priority 2010, dated 2024).
